Measurements reported in US9555137B2, “Uses of labeled HSP90 inhibitors” (Sloan-Kettering Institute for Cancer Research, priority 2011, dated 2017).

How the values were obtained:
[1] = PU-H71 tumor concentrations in MDA-MB-468 tumor-bearing mice (PET-predicted, simulated, LC-MS/MS); conditions: 75 mg/kg 1× week
[2] = tested on: MDA-MB-468 cells; assay: apoptosis of MDA-MB-468 cells (Ethidium Bromide/Acridine Orange); type: cell-based, human; conditions: 48 h
Description: As noted in FIG. 40B, several tumors are more sensitive to HSP90 inhibition than predicted from the preliminary data generated on cell lines.

[3] = tested on: Raf-1, Akt; assay: onco-client protein degradation in MDA-MB-468 cells (Western blot); type: cell-based; conditions: Homo sapiens, in vitro, 24 h
[4] = target: 359 kinases; assay: scanMAX kinase screen (Ambit); type: binding; conditions: 10 μM
[5] = tested on: caspase-3,7; assay: caspase 3,7 activation assay in AML cell lines; type: cell-based; conditions: 24 h
Description: A ten-fold, in MOLM-13 and M0-91, and two-fold, in Kasumi-1 and SKNO-1, increase in caspase-3,7 activation was observed as early as 24 h. Essentially no live cells were detected for the M0-91 cell line after 48 h of HSP90 inhibitor treatment. In the most sensitive cells, MOLM-13 and M0-91, apoptosis was associated with downregulation of the anti-apoptotic molecule Bcl-xL.
Cells were plated and treated as described in the growth inhibition assay section. Following a 24 h or 48 h exposure of cells to Hsp90 inhibitors, 100 μL buffer containing 10 mM Hepes, pH 7.5, 2 mM EDTA, 0.1% CHAPS, 0.1 mg/mL PMSF, Complete Protease Inhibitor mix (#1697498; Roche), and the caspase substrate Z-DEVD-R110 (#R22120; Molecular Probes) at 25 μM was added to each well. Plates were placed on an orbital shaker to promote cell lysis and reaction. The fluorescence signal of each well was measured in an Analyst GT (Molecular Dev ices) microplate reader (excitation 485 nm; emission at 530 nm). The percentage increase in caspase-3,7 activity was calculated by comparison of the fluorescence reading obtained from treated versus control cells. All experimental data were analyzed using SOFTmax Pro 4.3.1 and plotted using Prism 4.0 (Graphpad Software Inc., San Diego, Calif.).

[6] = tested on: HSP90; assay: 131I-PU-H71 saturation binding in intact cancer cells; type: cell-based
Description: The solutions were shaken in an orbital shaker and after 1 hr the cells were isolated and washed with ice cold Tris-buffered saline using a Brandel cell harvester. […] To calculate the percentage of HSP90, cellular HSP90 expression was quantified by using standard curves created of recombinant HSP90 purified from HeLa cells (Stressgen#ADI-SPP-770).

[7] = in vivo; conditions: mouse
[8] = tested on: Raf-1, Akt; assay: pharmacodynamic analysis of MDA-MB-468 tumors (Western blot); type: in vivo, mice; conditions: Mus musculus, MDA-MB-468, 24 h
[9] = tested on: MDA-MB-468 tumors; assay: efficacy study in MDA-MB-468 xenografted tumors; type: in vivo, mice; conditions: 75 mg/kg, 1× week
Description: Mice (n=5) bearing MDA-MB-468 tumors reaching a volume of 100-150 mm^3 were treated i.p. (i.p.) using different doses and schedules, as indicated. Tumor volume was determined by measurement with Vernier calipers, and tumor volume was calculated as the product of its length×width^2×0.4. Tumor volume was expressed on indicated days as the median tumor volume ±SD indicated for groups of mice. Percent (%) tumor growth inhibition values were measured on the final day of study for drug-treated compared with vehicle treated mice and are calculated as 100×{1−[(TreatedFinal day−TreatedDay 1)/(ControlFinal day−ControlDay 1)]}. Tumor regression values were determined by calculating the ratio of median tumor volumes at the time when treatment was initiated to median tumor volume on the final day of study for a given treatment group. Percent (%) tumor regression is 100×[1−(TreatedFinal day/TreatedDay 1)].

[10] = tested on: p-AKT, p-STAT5; assay: pharmacodynamic study in M0-91 tumors xenografted in mice; type: in vivo
Description: We next analyzed the pharmacodynamic effects of HSP90 inhibition in both HEL and M0-91 tumors xenografted in mice. Unlike the cultured cells, the use of the in vivo model allows real-time monitoring of HSP90-dependent pathways inhibition.
Four- to 6-week-old nu/nu athymic female mice were obtained from Taconic Farms. Experiments were carried out under an Institutional Animal Care and Use Committee-approved protocol, and institutional guidelines for the proper and humane use of animals in research were followed. HEL and M0-91 cells were subcutaneously implanted in the right flank of mice using a 20-gauge needle and allowed to grow. […] For this assay, tumors were allowed to reach 6-8 mm in diameter before treatment. […] Tumors were homogenized and proteins analyzed by western blot as described above.

[11] = [124I]-PU-H71 PET in cancer patients, tumor exposure to PU-H71; type: in vivo, human
[12] = tested on: breast cancer tumor specimens; assay: ex vivo sensitivity of breast cancer fresh tissue sections to PU-H71; type: cell-based, human; conditions: TNBC resistant (PT#14)
Description: From preliminary analyses we have learned that fresh tissue slicing provides a quick and more efficient ex vivo method for HSP90 inhibition evaluation than primary cell isolation. In addition, it preserves the cancer cells in the endogenous environment of the surrounding tissue. This is important since the interaction between stromal cells and tumor cells is known to play a major role in cancer growth and progression. In this method, the tissue (i.e. lesion) is placed in a plastic mold and embedded in 6% agarose. The agarose-embedded tissue is then mounted on the stage of the Vibratome that is submersed in a chilled reservoir (for tissue preservation) containing MEM with 1% penicillin/streptomycin. The tissue is then sliced using metal blades producing serial sections of the lesion that are 200 μm thick. Each section (minus the surrounding agarose-embedding media) is immediately placed in a 24-well tissue culture plate containing MEM with 1% penicillin/streptomycin. From a 5 mm×5 mm piece of tissue approximately 25 sections are produced. This allows for replicate analyses of tissue sections treated with a minimum of 4 doses of the HSP90 inhibitor and one with vehicle only. Replicates can be assayed by both IHC as well as viability assays (automatic plate reader or cytospin preparation) once tissue section undergoes enzymatic dissociation by brief exposure to dispase. […]

[13] = mouse, in vivo

CC(C)NCCCn1c(Sc2cc3c(cc2I)OCO3)nc2c(N)ncnc21 [PU-H71]
actual tumor concentration by LC-MS/MS ([1]; 24 h after last dose): 5.53±0.26
actual tumor concentration by LC-MS/MS ([1]; 96 h after last dose): 3.09±1.40
cells undergoing apoptosis ([2]; 0.5 μM): about 50%
cells undergoing apoptosis ([2]; about 5 μM): about 100%
EC50 ([3]; read-out: EC50 Akt, onco-client protein degradation): 150 ± 20 nM
EC50 ([3]; read-out: EC50 Raf-1, onco-client protein degradation): 130 ± 20 nM
kinase hits [4]: Only SNARK (NUAK family SNF1-like kinase 2)
increase in caspase-3,7 activation ([5]; Kasumi-1 and SKNO-1): two-fold
increase in caspase-3,7 activation ([5]; MOLM-13 and M0-91): ten-fold
fraction of total cellular HSP90 bound ([6]; K562 and other established t(9;22)+ CML cell lines): 10.3-23%
fraction of total cellular HSP90 bound ([6]; MDA-MB-468 cells): approximately 30%
concentration at 24 h ([7]; in vivo, 5 mg/kg): 430 nM
concentration at 24 h ([7]; tumor, 5 mg/kg): 370 nM
concentration at 24 h ([7]; tumor, 25 mg/kg): 1830 nM
concentration at 24 h ([7]; tumor, 50 mg/kg): 3670 nM
concentration at 48 h ([7]; tumor, 75 mg/kg): 3500 ± 270 nM
concentration at 96 h ([7]; tumor, 75 mg/kg): 1290 ± 290 nM
concentration at 120 h ([7]; tumor, 75 mg/kg): 690 ± 250 nM
EC50 ([8]; read-out: EC50 Akt, tumor concentration by PET vs pharmacodynamic effect): 90 ± 80 nM
EC50 ([8]; read-out: EC50 Raf-1, tumor concentration by PET vs pharmacodynamic effect): 240 ± 30 nM
anti-tumor effect [9]: significant tumor growth inhibition
duration of apoptosis after one dose [10]: 96 h
tumor AUC0-336h ([11]; 10 mg/m^2 once a week for two weeks): 54 μM-h
tumor exposure ([11]; left lung, 80 mg/m2 2× week): above 760 uM-h
apoptosis [12]: no apoptosis noted at any of the tested concentrations
AUC tumor relative to AUC blood [13]: 15 fold
area under the blood time-activity concentration curve [13]: 0.78 % ID/g-h
area under the tumor time-activity concentration curve [13]: 11.4 % ID/g-h
